Common to all, as to assay type: biochemical
The target in one experiment is T1, human Lck enzyme (Homo sapiens, UniProt P06239).
T1 construct: purchased Carna Biosciences, Inc. 08-170
Put plainly: Lck enzyme inhibitory activity (time-resolved fluorometry, biotinylated peptide phosphorylation). The settings on record: read-out: LCK_IC50. In a few lines:
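Readout pairs a europium cryptate-labelled anti-phosphotyrosine antibody with XL665-streptavidin, measured by time-resolved fluorescence. IC50 derived from percent inhibition against untreated controls.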

For a further experiment, the target named is T2, human Yes1 enzyme (Homo sapiens, UniProt P07947).
T2 construct: made in house
Nature of the experiment: Yes1 enzyme inhibitory activity (time-resolved fluorometry, biotinylated peptide phosphorylation). The settings on record: read-out: YES_IC50. Summed up:
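Inhibition was expressed against a compound-free control to give IC50, using TR-FRET read-out (Eu-cryptate anti-pTyr antibody, streptavidin-XL665).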

A further experiment deals with T3, human Src enzyme (Homo sapiens, UniProt P12931).
T3 construct: purchased Carna Biosciences, Inc. 08-173
Put plainly: Src enzyme inhibitory activity (time-resolved fluorometry, biotinylated peptide phosphorylation). The settings on record: read-out: SRC_IC50. Summed up: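 Compounds were tested for blocking tyrosine phosphorylation of a biotinylated peptide substrate by recombinant human Src. Phosphorylated product was quantified by time-resolved fluorometry using europium cryptate and XL665 conjugates, and IC50 was calculated against the compound-free control.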

The mark [1] stands for this setting: biotinylated peptide phosphorylation.

Where two headings read alike, the source gives them in different places.

T3 sequence (P12931 whole entry): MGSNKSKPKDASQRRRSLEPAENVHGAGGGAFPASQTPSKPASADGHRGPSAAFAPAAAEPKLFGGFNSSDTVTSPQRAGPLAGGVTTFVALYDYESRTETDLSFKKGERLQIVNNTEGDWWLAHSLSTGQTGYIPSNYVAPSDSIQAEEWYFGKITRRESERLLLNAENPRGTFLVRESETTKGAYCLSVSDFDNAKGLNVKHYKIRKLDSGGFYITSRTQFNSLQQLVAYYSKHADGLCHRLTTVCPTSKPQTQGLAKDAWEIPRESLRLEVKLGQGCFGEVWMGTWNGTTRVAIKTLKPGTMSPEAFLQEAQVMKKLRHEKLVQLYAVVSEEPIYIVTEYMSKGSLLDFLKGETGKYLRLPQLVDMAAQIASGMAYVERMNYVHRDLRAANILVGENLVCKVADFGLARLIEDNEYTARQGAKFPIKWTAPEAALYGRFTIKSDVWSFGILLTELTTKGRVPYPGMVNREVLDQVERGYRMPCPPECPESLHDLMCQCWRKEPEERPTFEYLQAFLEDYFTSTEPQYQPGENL
T1 sequence (P06239 whole entry): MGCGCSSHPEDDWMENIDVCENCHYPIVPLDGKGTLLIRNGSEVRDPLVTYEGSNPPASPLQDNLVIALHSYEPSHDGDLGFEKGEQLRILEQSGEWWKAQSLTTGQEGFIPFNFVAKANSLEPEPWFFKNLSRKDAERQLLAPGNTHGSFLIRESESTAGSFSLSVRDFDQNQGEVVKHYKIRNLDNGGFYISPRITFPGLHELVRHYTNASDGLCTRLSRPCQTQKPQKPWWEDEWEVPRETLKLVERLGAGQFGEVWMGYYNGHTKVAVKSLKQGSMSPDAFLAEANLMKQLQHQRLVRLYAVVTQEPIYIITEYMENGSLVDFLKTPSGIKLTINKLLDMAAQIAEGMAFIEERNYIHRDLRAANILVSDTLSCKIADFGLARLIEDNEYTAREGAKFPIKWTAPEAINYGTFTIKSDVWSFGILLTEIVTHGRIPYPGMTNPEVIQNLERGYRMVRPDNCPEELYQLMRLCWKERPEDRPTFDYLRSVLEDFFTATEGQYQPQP
T2 sequence (P07947 whole entry): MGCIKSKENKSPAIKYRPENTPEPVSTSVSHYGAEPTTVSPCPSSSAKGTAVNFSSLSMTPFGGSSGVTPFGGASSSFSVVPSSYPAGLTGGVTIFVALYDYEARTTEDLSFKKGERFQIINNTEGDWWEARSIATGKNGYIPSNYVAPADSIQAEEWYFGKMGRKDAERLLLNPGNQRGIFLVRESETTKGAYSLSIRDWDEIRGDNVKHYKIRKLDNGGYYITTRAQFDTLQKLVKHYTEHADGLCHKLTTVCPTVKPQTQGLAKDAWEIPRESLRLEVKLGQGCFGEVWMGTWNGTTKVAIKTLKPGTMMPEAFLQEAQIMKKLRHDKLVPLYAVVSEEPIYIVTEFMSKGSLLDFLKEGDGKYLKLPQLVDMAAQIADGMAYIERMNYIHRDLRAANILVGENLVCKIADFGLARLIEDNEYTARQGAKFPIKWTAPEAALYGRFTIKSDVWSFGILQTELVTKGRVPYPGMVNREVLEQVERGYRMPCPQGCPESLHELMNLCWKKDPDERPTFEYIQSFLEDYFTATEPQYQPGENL

Turning to `Cc1cc(Oc2c(F)cccc2F)ncc1-n1ncc(C(=O)c2cc3cc(OC(F)F)c(C4CCN(S(=O)(=O)C5CC5)CC4)cc3[nH]2)c1N` [Example 4-17-013, [5-amino-1-[6-(2,6-difluorophenoxy)-4-methylpyridin-3-yl]pyrazol-4-yl]-[6-(1-cyclopropylsulfonylpiperidin-4-yl)-5-(difluoromethoxy)-1H-indol-2-yl]methanone], the IC50 at human Lck enzyme (setting [1]) worked out at 37 nM; at human Yes1 enzyme (setting [1]) it was 17 nM; on human Src enzyme (setting [1]), 46 nM.

`Cc1cc2cc(C(=O)c3cnn(-c4cnc(Oc5c(F)cccc5F)cc4C)c3N)[nH]c2cc1NS(=O)(=O)C1CCCCC1` [Example 5-1-314, N-[2-[5-amino-1-[6-(2,6-difluorophenoxy)-4-methylpyridin-3-yl]pyrazole-4-carbonyl]-5-methyl-1H-indol-6-yl]cyclohexanesulfonamide]: the IC50 is 150 nM on human Lck enzyme, 9.6 nM at human Yes1 enzyme and 480 nM on human Src enzyme.

With `Cc1cc(Oc2ccccc2F)ncc1-n1ncc(C(=O)c2cc3cc(OC(F)F)c(NS(=O)(=O)C4CCOCC4)cc3[nH]2)c1N` [Example 5-1-401, N-[2-[5-amino-1-[6-(2-fluorophenoxy)-4-methylpyridin-3-yl]pyrazole-4-carbonyl]-5-(difluoromethoxy)-1H-indol-6-yl]oxane-4-sulfonamide], the IC50 at human Lck enzyme (setting [1]) was determined as 41 nM; at human Yes1 enzyme (setting [1]), 2.5 nM; on human Src enzyme (setting [1]) it was 140 nM.

Regarding `Cc1cc(Oc2cccc(F)c2F)cc(F)c1-n1ncc(C(=O)c2cc3cc(F)c(NS(=O)(=O)C4CC4)cc3[nH]2)c1N` [Example 4-7-006, N-[2-[5-amino-1-[4-(2,3-difluorophenoxy)-2-fluoro-6-methylphenyl]pyrazole-4-carbonyl]-5-fluoro-1H-indol-6-yl]cyclopropanesulfonamide], the results for the IC50 at human Lck enzyme (setting [1]), on human Yes1 enzyme (setting [1]) and on human Src enzyme (setting [1]) were 160 nM, 7 nM and 380 nM, respectively.

`Cc1cc(Oc2ccccc2F)ccc1-n1ncc(C(=O)c2cc3cc(F)c(NS(=O)(=O)CC(=O)N4CCN(C(C)C)CC4)cc3[nH]2)c1N` [Example 4-10-003, N-[2-[5-amino-1-[4-(2-fluorophenoxy)-2-methylphenyl]pyrazole-4-carbonyl]-5-fluoro-1H-indol-6-yl]-2-oxo-2-(4-propan-2-ylpiperazin-1-yl)ethanesulfonamide 2,2,2-trifluoroacetate]: the IC50 on human Lck enzyme (setting [1]) stood at 4.9 nM; at human Yes1 enzyme (setting [1]), 0.75 nM; on human Src enzyme (setting [1]), 26 nM.

Take `Cc1cc(-n2ncc(C(=O)c3cc4cc(N5CCOCC5)c(N5C(=O)NC(C)(C)C5=O)cc4[nH]3)c2N)ccc1Oc1ccccc1F` [Example 5-1-164, 3-[2-[5-amino-1-[4-(2-fluorophenoxy)-3-methylphenyl]pyrazole-4-carbonyl]-5-morpholin-4-yl-1H-indol-6-yl]-5,5-dimethylimidazolidine-2,4-dione]: the IC50 at human Lck enzyme came out at 69 nM; at human Yes1 enzyme, 1.8 nM; on human Src enzyme, 700 nM.

With `Cc1cc(Oc2ccccc2F)ncc1-n1ncc(C(=O)c2cc3cc(F)c(NS(=O)(=O)c4c(F)cc(F)cc4F)cc3[nH]2)c1N` [Example 5-1-568, N-[2-[5-amino-1-[6-(2-fluorophenoxy)-4-methylpyridin-3-yl]pyrazole-4-carbonyl]-5-fluoro-1H-indol-6-yl]-2,4,6-trifluorobenzenesulfonamide], the IC50 on human Lck enzyme (setting [1]) worked out at 750 nM; on human Yes1 enzyme (setting [1]), 17 nM; on human Src enzyme (setting [1]), 1300 nM.

For the compound `Cc1cc(Oc2ccccc2F)ccc1-n1ncc(C(=O)c2cc3cc(F)c(N4C(=O)NC5(COC5)C4=O)cc3[nH]2)c1N` [Example 5-1-376, 7-[2-[5-amino-1-[4-(2-fluorophenoxy)-2-methylphenyl]pyrazole-4-carbonyl]-5-fluoro-1H-indol-6-yl]-2-oxa-5,7-diazaspiro[3.4] octane-6,8-dione], the IC50 on human Lck enzyme is 4 nM; on human Yes1 enzyme, 1.4 nM; at human Src enzyme, 14 nM.

Regarding `Cc1cc(Oc2ccccc2F)ccc1-n1ncc(C(=O)c2cc3cc(F)c(NS(=O)(=O)NC4CC4)cc3[nH]2)c1N` [Example 4-5-010, [5-amino-1-[4-(2-fluorophenoxy)-2-methylphenyl]pyrazol-4-yl]-[6-(cyclopropylsulfamoylamino)-5-fluoro-1H-indol-2-yl]methanone], the IC50 at human Lck enzyme (setting [1]) turned out to be 22 nM; at human Yes1 enzyme (setting [1]) it was 1.8 nM; on human Src enzyme (setting [1]), 34 nM.

On to `Cc1cc(Oc2cccc(F)c2)ncc1-n1ncc(C(=O)c2cc3cc(F)c(NS(C)(=O)=O)cc3[nH]2)c1N` [Example 4-2-038, N-[2-[5-amino-1-[6-(3-fluorophenoxy)-4-methylpyridin-3-yl]pyrazole-4-carbonyl]-5-fluoro-1H-indol-6-yl]methanesulfonamide], for which the IC50 on human Lck enzyme (setting [1]) was found to be 40 nM; on human Yes1 enzyme (setting [1]), 1.9 nM; at human Src enzyme (setting [1]), 130 nM.

Consider `Cc1cc(Oc2ccccc2F)ccc1-n1ncc(C(=O)c2cc3cc(OC(F)F)c(NS(=O)(=O)C4CCOCC4)cc3[nH]2)c1N` [Example 5-1-390, N-[2-[5-amino-1-[4-(2-fluorophenoxy)-2-methylphenyl]pyrazole-4-carbonyl]-5-(difluoromethoxy)-1H-indol-6-yl]oxane-4-sulfonamie], for which the IC50 was 25 nM on human Lck enzyme, 1.9 nM on human Yes1 enzyme and 44 nM at human Src enzyme.

`Cc1cc(Oc2cccc(F)c2F)ccc1-n1ncc(C(=O)c2cc3cc(F)c(C4CCN(C(C)C)CC4)cc3[nH]2)c1N` [Example 4-2-011, [5-amino-1-[4-(2,3-difluorophenoxy)-2-methylphenyl]pyrazol-4-yl][5-fluoro-6-(1-propan-2-ylpiperidin-4-yl)-1H-indol-2-yl]methanone]: the figures for the IC50 on human Lck enzyme (setting [1]), on human Yes1 enzyme (setting [1]) and on human Src enzyme (setting [1]) were 2.7 nM, 2.2 nM and 11 nM, respectively.

Take `Cc1cc(-n2ncc(C(=O)c3cc4cc(OC5CCN(C6CS(=O)(=O)C6)CC5)c(-c5ccccc5F)cc4[nH]3)c2N)ccc1Oc1ccccc1F` [Example 5-1-309, [5-amino-1-[4-(2-fluorophenoxy)-3-methylphenyl]pyrazol-4-yl]-[5-[1-(1,1-dioxothietan-3-yl)piperidin-4-yl]oxy-6-(2-fluorophenyl)-1H-indol-2-yl]methanone]: the IC50 on human Lck enzyme was 410 nM; at human Yes1 enzyme, 12 nM; on human Src enzyme, 3600 nM.

As to `Cc1cc(Oc2ccccc2F)ncc1-n1ncc(C(=O)c2cc3cc(OC(F)F)c(NS(=O)(=O)CCCF)cc3[nH]2)c1N` [Example 4-24-009, N-[2-[5-amino-1-[6-(2-fluorophenoxy)-4-methylpyridin-3-yl]pyrazole-4-carbonyl]-5-(difluoromethoxy)-1H-indol-6-yl]-3-fluoropropane-1-sulfonamide], the IC50 at human Lck enzyme (setting [1]) is 39 nM; on human Yes1 enzyme (setting [1]), 3.6 nM; at human Src enzyme (setting [1]), 120 nM.

As to `Cc1cc(Oc2ccccc2F)ncc1-n1ncc(C(=O)c2cc3cc(N4CCOCC4)c(NS(=O)(=O)C4CC4)cc3[nH]2)c1N` [Example 4-24-014, N-[2-[5-amino-1-[6-(2-fluorophenoxy)-4-methylpyridin-3-yl]pyrazole-4-carbonyl]-5-morpholin-4-yl-1H-indol-6-yl]cyclopropanesulfonamide], the IC50 on human Lck enzyme (setting [1]) turned out to be 97 nM; at human Yes1 enzyme (setting [1]), 6.6 nM; at human Src enzyme (setting [1]), 360 nM.

(Values after patent publication US10479780B2, “Aminopyrazole derivatives” (Chugai Seiyaku Kabushiki Kaisha, priority 2015, dated 2019).)
